IC50 data for 34 compounds are collected here from patent US9242970B2 (ACTELION PHARMACEUTICALS LTD., priority 2010, dated 2016).

Test [1] deals with human orexin-1 receptor (Homo sapiens (Human), UniProt O43613). The test is described as follows: In vitro assay: intracellular calcium measurements (FLIPR), antagonistic activity. In kind it is cell-based. The settings on record: CHO cells, 3 nM orexin-A, marked values are geometric means of n = 2-6, read-out: IC50 OX1. Background: A change in cytosolic calcium serves as a functional read-out for many receptors and channels.
Chain of human orexin-1 receptor (O43613 whole entry): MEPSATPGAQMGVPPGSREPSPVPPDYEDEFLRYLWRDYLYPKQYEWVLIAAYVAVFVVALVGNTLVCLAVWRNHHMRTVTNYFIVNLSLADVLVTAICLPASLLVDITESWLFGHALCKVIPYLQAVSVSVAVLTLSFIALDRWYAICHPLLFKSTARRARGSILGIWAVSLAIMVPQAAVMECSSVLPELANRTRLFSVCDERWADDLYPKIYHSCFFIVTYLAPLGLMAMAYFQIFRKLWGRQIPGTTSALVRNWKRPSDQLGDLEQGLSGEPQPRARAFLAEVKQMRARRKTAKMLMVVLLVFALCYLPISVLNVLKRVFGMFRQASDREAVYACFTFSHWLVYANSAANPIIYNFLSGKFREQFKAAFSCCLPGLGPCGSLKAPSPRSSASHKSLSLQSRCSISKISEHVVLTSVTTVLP

The target of test [2] is human orexin-2 receptor (Homo sapiens (Human), UniProt O43614). Described as above. In kind it is cell-based. The settings on record: CHO cells, 3 nM orexin-A, marked values are geometric means of n = 2-6, read-out: IC50 OX2.
Chain of human orexin-2 receptor (O43614 whole entry): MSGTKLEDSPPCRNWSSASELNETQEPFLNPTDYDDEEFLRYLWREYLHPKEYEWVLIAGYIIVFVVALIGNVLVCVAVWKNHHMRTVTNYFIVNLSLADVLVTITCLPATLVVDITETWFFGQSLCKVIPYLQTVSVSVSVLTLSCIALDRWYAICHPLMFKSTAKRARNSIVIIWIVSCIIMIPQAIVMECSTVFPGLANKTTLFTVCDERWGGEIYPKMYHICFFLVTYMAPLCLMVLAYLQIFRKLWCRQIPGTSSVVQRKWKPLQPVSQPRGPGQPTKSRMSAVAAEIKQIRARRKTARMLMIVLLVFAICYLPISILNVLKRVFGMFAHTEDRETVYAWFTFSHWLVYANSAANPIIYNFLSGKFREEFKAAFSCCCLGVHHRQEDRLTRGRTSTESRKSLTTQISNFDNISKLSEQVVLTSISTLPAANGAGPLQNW
[3] abbreviates: compound incubation time of 10 min.

Like-named read-outs stand apart in the source and are kept apart here.

By IC50 is commonly meant the concentration that gives 50% inhibition. Take `COc1cccc(OC)c1C1CCCC(=O)N1C(C)c1cnc(OC(F)F)c(Cl)c1` (centres unmarked) [Example 185, 1-(1-(5-chloro-6-(difluoromethoxy)pyridin-3-yl)ethyl)-6-(2,6-dimethoxyphenyl)piperidin-2-one]: the IC50 turned out to be 323 nM in test [1] (setting [3]) and 34 nM in test [2] (setting [3]).
On the same counts, the results for `CCC(c1ccc(OC(F)(F)F)cc1)N1C(=O)CCCC1c1c(OC)cccc1OC` (centres unmarked) [Example 186, 6-(2,6-dimethoxyphenyl)-1-(1-(4-(trifluoromethoxy)phenyl)propyl)piperidin-2-one] are 2770 nM and 5650 nM.
`COc1cccc(OC)c1C1CCCC(=O)N1Cc1ccc(OC(F)F)cn1` (centres unmarked) [Example 187, 1-((5-(difluoromethoxy)pyridin-2-yl)methyl)-6-(2,6-dimethoxyphenyl)piperidin-2-one]: the IC50 in test [1] (setting [3]) worked out at 235 nM; in test [2] (setting [3]) it was 70 nM.
On the same counts, the results for `COc1cccc(OC)c1C1CCCC(=O)N1Cc1cc(OC(F)F)ccn1` (centres unmarked) [Example 188, 1-((4-(difluoromethoxy)pyridin-2-yl)methyl)-6-(2,6-dimethoxyphenyl)piperidin-2-one] are 4180 nM and 484 nM.
With `COc1cccc(OC)c1C1CCCC(=O)N1Cc1cccc(-c2ccccc2)c1` (centres unmarked) [Example 189, 1-([1,1′-biphenyl]-3-ylmethyl)-6-(2,6-dimethoxyphenyl)piperidin-2-one], the IC50 in test [1] (compound incubation 120 min) was 17 nM; in test [2] (compound incubation 120 min), 12 nM.
On to `COc1cccc(OC)c1C1CCCC(=O)N1Cc1ccccc1-c1ccccc1` (centres unmarked) [Example 190, 1-([1,1′-biphenyl]-2-ylmethyl)-6-(2,6-dimethoxyphenyl)piperidin-2-one], for which the results for the 50% inhibitory concentration (IC50) in test [1] (setting [3]) and in test [2] (setting [3]) were 1950 nM and 507 nM, respectively.
In the case of `COc1cccc(OC)c1C1CCCC(=O)N1Cc1ccccc1Oc1ccccc1` (centres unmarked) [Example 191, 6-(2,6-dimethoxyphenyl)-1-(2-phenoxybenzyl)piperidin-2-one], the IC50 in test [1] (setting [3]) came out at 373 nM; in test [2] (setting [3]), 50 nM.
In the same order, the values of `COc1cccc(OC)c1C1CCCC(=O)N1Cc1ccc(Oc2ccccc2)nc1` (centres unmarked) [Example 192, 6-(2,6-dimethoxyphenyl)-1-((6-phenoxypyridin-3-yl)methyl)piperidin-2-one] are 361 nM and 29 nM.
In the same order, the values of `COc1cccc(OC)c1C1CCCCC(=O)N1Cc1ccc(OC(F)(F)F)cc1` (centres unmarked) [Example 193, 7-(2,6-dimethoxyphenyl)-1-(4-(trifluoromethoxy)benzyl)azepan-2-one] are 257 nM and 66 nM.
Consider `CCOc1ccccc1C1CCC(=O)N1Cc1ccc(F)cc1` (centres unmarked) [Example 194, 5-(2-ethoxyphenyl)-1-(4-fluorobenzyl)pyrrolidin-2-one], for which the IC50 in test [1] (setting [3]) is above 12700 nM; in test [2] (setting [3]), 669 nM.
Turning to `CCOc1ccccc1C1CCC(=O)N1Cc1ccc(OC(F)(F)F)cc1` (centres unmarked) [Example 195, 5-(2-ethoxyphenyl)-1-(4-(trifluoromethoxy)benzyl)pyrrolidin-2-one], the IC50 in test [1] (setting [3]) was determined as 821 nM; in test [2] (setting [3]), 240 nM.
On the same counts, the results for `COc1cccc(OC)c1C1CCC(=O)N1Cc1ccc(OC(F)(F)F)cc1` (centres unmarked) [Example 196, 5-(2,6-dimethoxyphenyl)-1-(4-(trifluoromethoxy)benzyl)pyrrolidin-2-one] are 724 nM and 158 nM.
Consider `COc1cccc(OC)c1C1CCC(=O)N1Cc1ccc(F)cc1` (centres unmarked) [Example 197, 5-(2,6-dimethoxyphenyl)-1-(4-fluorobenzyl)pyrrolidin-2-one], for which the results for the concentration for half-maximal inhibition (IC50) in test [1] (setting [3]) and in test [2] (setting [3]) were above 10400 nM and 1300 nM, respectively.
On the same counts, the results for `COc1cccc(OC)c1C1CC(C)C(=O)N1Cc1cccc(OC(F)F)c1` (centres unmarked) [Example 198, 1-(3-(difluoromethoxy)benzyl)-5-(2,6-dimethoxyphenyl)-3-methylpyrrolidin-2-one] are 117 nM and 96 nM.
In the same order, the values of `COc1cccc(OC)c1C1CC(C)C(=O)N1Cc1ccc(OC(F)F)nc1` (centres unmarked) [Example 199, 1-((6-(difluoromethoxy)pyridin-3-yl)methyl)-5-(2,6-dimethoxyphenyl)-3-methylpyrrolidin-2-one] are 351 nM and 621 nM.
Turning to `COc1cccc(OC)c1C1CC(C)C(=O)N1Cc1cccc(OC(F)(F)F)c1` (centres unmarked) [Example 200, 5-(2,6-dimethoxyphenyl)-3-methyl-1-(3-(trifluoromethoxy)benzyl)pyrrolidin-2-one], the IC50 in test [1] (setting [3]) and in test [2] (setting [3]) was 108 nM in each case.
Consider `COc1cccc(OC)c1C1CC(C)C(=O)N1Cc1cccc(OC(F)F)n1` (centres unmarked) [Example 201, 1-((6-(difluoromethoxy)pyridin-2-yl)methyl)-5-(2,6-dimethoxyphenyl)-3-methylpyrrolidin-2-one], for which the figures for the IC50 in test [1] (setting [3]) and in test [2] (setting [3]) were 955 nM and 192 nM, respectively.
`COc1cccc(OC)c1C1CC(C)C(=O)N1Cc1ccnc(OC(F)F)c1` (centres unmarked) [Example 202, 1-((2-(difluoromethoxy)pyridin-4-yl)methyl)-5-(2,6-dimethoxyphenyl)-3-methylpyrrolidin-2-one]: the IC50 was 224 nM in test [1] (setting [3]) and 923 nM in test [2] (setting [3]).
In the same order, the values of `CCC(c1ccc(OC(F)(F)F)cc1)N1C(=O)C(C)CC1c1c(OC)cccc1OC` (centres unmarked) [Example 203, 5-(2,6-dimethoxyphenyl)-3-methyl-1-(1-(4-(trifluoromethoxy)phenyl)propyl)pyrrolidin-2-one] are 451 nM and 1170 nM.
On to `COc1cccc(OC)c1C1CC(C)C(=O)N1Cc1cc(OC(F)F)ccn1` (centres unmarked) [Example 204, 1-((4-(difluoromethoxy)pyridin-2-yl)methyl)-5-(2,6-dimethoxyphenyl)-3-methylpyrrolidin-2-one], for which the half-inhibitory concentration (IC50) in test [1] (setting [3]) amounted to 6380 nM; in test [2] (setting [3]), 1260 nM.
In the same order, the values of `CCOc1ccc(CN2C(=O)CCCC2c2c(OC)cccc2OC)cc1` (centres unmarked) [Example 205, 6-(2,6-dimethoxyphenyl)-1-(4-ethoxybenzyl)piperidin-2-one] are 202 nM and 65 nM.
On the same counts, the results for `COc1cccc(OC)c1C1CCCC(=O)N1Cc1ccc(OC(C)C)cc1` (centres unmarked) [Example 206, 6-(2,6-dimethoxyphenyl)-1-(4-isopropoxybenzyl)piperidin-2-one] are 383 nM and 16 nM.
On to `CCCOc1ccc(CN2C(=O)CCCC2c2c(OC)cccc2OC)cc1` (centres unmarked) [Example 207, 6-(2,6-dimethoxyphenyl)-1-(4-propoxybenzyl)piperidin-2-one], for which the results for the IC50 in test [1] (setting [3]) and in test [2] (setting [3]) were 169 nM and 35 nM, respectively.
As for `COc1cccc(OC)c1C1CCCC(=O)N1Cc1ccc(OCC2CC2)cc1` (centres unmarked) [Example 208, 1-(4-(cyclopropylmethoxy)benzyl)-6-(2,6-dimethoxyphenyl)piperidin-2-one], the IC50 in test [1] (setting [3]) worked out at 1110 nM; in test [2] (setting [3]) it was 39 nM.
On the same counts, the results for `COc1cccc(OCCCO)c1C1CCCC(=O)N1Cc1ccc(OC(F)(F)F)cc1` (centres unmarked) [Example 209, 6-(2-(3-hydroxypropoxy)-6-methoxyphenyl)-1-(4-(trifluoromethoxy)benzyl)piperidin-2-one] are 1060 nM and 286 nM.
Turning to `COc1cccc(OCC2CC2)c1C1CCCC(=O)N1Cc1ccc(OC(F)(F)F)cc1` (centres unmarked) [Example 210, 6-(2-(cyclopropylmethoxy)-6-methoxyphenyl)-1-(4-(trifluoromethoxy)benzyl)piperidin-2-one], the IC50 in test [1] (setting [3]) worked out at 2550 nM; in test [2] (setting [3]), 4140 nM.
In the case of `COCCOc1cccc(OC)c1C1CCCC(=O)N1Cc1ccc(OC(F)(F)F)cc1` (centres unmarked) [Example 211, 6-(2-methoxy-6-(2-methoxyethoxy)phenyl)-1-(4-(trifluoromethoxy)benzyl)piperidin-2-one], the figures for the IC50 in test [1] (setting [3]) and in test [2] (setting [3]) were 2780 nM and 664 nM, respectively.
On the same counts, the results for `CCOc1cccc(OC)c1C1CCCC(=O)N1Cc1ccc(OC(F)(F)F)cc1` (centres unmarked) [Example 212, 6-(2-ethoxy-6-methoxyphenyl)-1-(4-(trifluoromethoxy)benzyl)piperidin-2-one] are 216 nM and 37 nM.
In the case of `COc1cccc(OCCO)c1C1CCCC(=O)N1Cc1ccc(OC(F)(F)F)cc1` (centres unmarked) [Example 213, 6-(2-(2-hydroxyethoxy)-6-methoxyphenyl)-1-(4-(trifluoromethoxy)benzyl)piperidin-2-one], the IC50 in test [1] (setting [3]) was 1380 nM; in test [2] (setting [3]) it was 85 nM.
Take `COc1cccc(OCC(O)CO)c1C1CCCC(=O)N1Cc1ccc(OC(F)(F)F)cc1` (centres unmarked) [Example 214, 6-(2-(2,3-dihydroxypropoxy)-6-methoxyphenyl)-1-(4-(trifluoromethoxy)benzyl)piperidin-2-one]: the IC50 worked out at 3540 nM in test [1] (setting [3]) and 735 nM in test [2] (setting [3]).
As to `COc1cccc(OC)c1C1CCC(C)(C)C(=O)N1Cc1ccc(OC(F)(F)F)cc1` (centres unmarked) [Example 215, 6-(2,6-dimethoxyphenyl)-3,3-dimethyl-1-(4-(trifluoromethoxy)benzyl)piperidin-2-one], the IC50 was 1410 nM in test [1] (setting [3]) and 1290 nM in test [2] (setting [3]).
Take `COc1cccc(OC)c1C1CCC(C)C(=O)N1Cc1ccc(OC(F)(F)F)cc1` (centres unmarked) [Example 216, 6-(2,6-dimethoxyphenyl)-3-methyl-1-(4-(trifluoromethoxy)benzyl)piperidin-2-one]: the IC50 in test [1] (setting [3]) came out at 40 nM; in test [2] (setting [3]), 894 nM.
Take `COc1cccc(OC)c1C1CC(C)(C)C(=O)N1Cc1ccc(OC(F)(F)F)cc1` (centres unmarked) [Example 217, 5-(2,6-dimethoxyphenyl)-3,3-dimethyl-1-(4-(trifluoromethoxy)benzyl)pyrrolidin-2-one]: the IC50 turned out to be 22 nM in test [1] (setting [3]) and 252 nM in test [2] (setting [3]).
As for `COc1cccc(OC)c1C1CCCC(=O)N1Cc1ccnc(-c2nccs2)c1` (centres unmarked) [Example 219, 6-(2,6-dimethoxyphenyl)-1-((2-(thiazol-2-yl)pyridin-4-yl)methyl)piperidin-2-one], the results for the IC50 in test [1] (compound incubation 120 min) and in test [2] (compound incubation 120 min) were 19 nM and 9 nM, respectively.
